Measurements from patent publication US20150368617A1, “METHOD FOR FORMING ENDOTHELIAL CELLS” (Korea Advanced Institute of Science and Technology (KAIST), priority 2012, published 2015).

Legend:
Type in all cases: cell-based, mouse
Flk1+ MPCs = assay: Differentiation of MCs from Flk1+ MPCs, FACS of αSMA+ MCs; conditions: Y27632 10 μM; ML7 5 μM
Description: FIGS. 11A-11D. ROCK suppression promotes the differentiation of ECs through PTEN-Akt signaling and inhibits the differentiation of MCs through MyPT-MLC signaling. (FIG. 11A) Representative FACS analysis of CD31+/CD144+ ECs incubated with 0.1% DMSO or LY294002 (20┌ M; LY) in the presence of PBS (Control) or Y27632 (10┌ M; Y). (FIG. 11B) % of CD31+/CD144+ EC population. Each group, n=3. *p<0.01 versus 0. Each group, n=3. *p<0.01 versus DMSO; ^#p<0.01 versus Y27632. (FIG. 11C) Representative FACS analysis of ┌ SMA+MCs or CD144+ ECs incubated with 0.1% DMSO or ML7 (5 ┌ M) in the presence of PBS (Control) or Y27632 (10┌ M). (FIG. 11D) % of ┌ SMA+MC population. Each group, n=3. *p<0.01 versus 0. Each group, n=3. *p<0.01 versus DMSO. n.s. represents statistically non-significant.
Analysis and sorting for CMs were performed at day 10.5. We harvested differentiated Flk1+ MPCs on OP9 cells with 0.25% trypsin-EDTA or dissociation buffer (Invitrogen). Cardiac troponin-T (cTnT)+ and ┌ smooth muscle actin (SMA)+ cells were analyzed after permeabilization using Cytofix/Cytoperm solution (BD Biosciences) for 15 min. After permeabilization, the cells were incubated for 30 min with anti-mouse cTnT (NeoMarkers) monoclonal antibody. […] Data were analyzed using FlowJo Version 7.5.4 software (TreeStar).

CD144+ ECs = assay: FACS phenotypic analysis of EC and MC markers at day 6.5
Description: FIGS. 12A to 12B-6. ROCK suppression-induced ECs express EC-specific genes. (FIG. 12A) Diagram of cell preparations for phenotype analyses of EC and MC differentiation. Flk1+ MPCs were incubated with only VEGF-A (50 ng/ml) (Control) and VEGF-A (50 ng/ml) plus Y27632 (10┌ M) (Y72632) for 2 days. (FIG. 12B-1 to FIG. 12B-6) Representative FACS analysis for phenotypic markers in CD144+ cells; pan-endothelial, mural, and arterial-, venous- and lymphatic EC.
Cells were harvested with 0.25% trypsin-EDTA (Invitrogen) or dissociation buffer (Invitrogen) and resuspended in HBSS/2% FBS at 1×10^6 cells per 100┌ l. The cells were incubated for 20 min with the following antibodies: biotin-conjugated anti-mouse Flk1 (clone AVAS12a1, eBioscience), allophycocyanin (APC)-conjugated anti-mouse CD140a (clone APA5, eBioscience), phycoerythrin(PE)-conjugated anti-mouse CD31 (clone 390, eBioscience), Alexa Fluor® 647-conjugated anti-mouse CD144 (clone BV13, eBioscience), PE-conjugated anti-mouse D114 (clone HMD4-1, Biolegend), PE-conjugated anti-mouse Tie2 (clone TEK4, eBioscience), PE-conjugated anti-mouse Endoglin (clone MJ7/18, Biolegend), anti-mouse ICAM2 (clone 3C4, Biolegend), APC-conjugated anti-mouse CD140b (clone APBS, eBioscience), PE-conjugated anti-mouse LYVE1 (clone ALY7, eBioscience), anti-mouse VEGFR3 (goat polyclonal, R&D systems), anti-mouse EphB4 (clone VEB4-7E4, Hycult biotech), and PE-conjugated anti-mouse Notch1 (clone HMN1-12, Biolegend). After washing in HBSS/2% FBS twice, the cells were incubated with the following secondary antibodies: PE-conjugated streptavidin (eBioscience), PE-conjugated anti-rat IgG2a (eBioscience), and FITC-conjugated anti-goat IgG (Invitrogen). Dead cells were excluded by 7-aminoactinomycin D (7-AAD, Invitrogen).

ICAM2+ ECs = assay: Cell cycle FACS analysis in ICAM2+ ECs; conditions: 12 hrs after plating
Description: FIGS. 15A-15D. ROCK suppression continuously promotes the expansion of ECs. ICAM2+ ECs were further incubated with PBS (Control), Y27632 (10┌ M), VEGF-A (50 ng/ml; VA) or Y27632 (10┌ M) plus VEGF-A (50 ng/ml) for 2 days, and analyses were performed at day 8.5. (FIG. 15A) Representative FACS analysis showing cell cycle in ICAM2+ ECs at 12 hrs. (FIG. 15B) % of ICAM2+ ECs under each phase of cell cycle at 12 hrs. Each group, n=3. *p<0.01 versus Control; ^#p<0.01 versus VEGF-A. (FIG. 15C) Representative FACS analysis of Annexin V+/PI− apoptotic ECs. (FIG. 15D) % of Annexin V+/PI− ECs. Each group, n=3. *p<0.01 versus Control.
Apoptosis assay was performed as previously described. To determine the cell cycle, BrdU/7-AAD cell cycle analysis was performed according to the manufacturer's instructions (BD Pharmingen™). Briefly, cells were incubated with BrdU (1 mM) for 1 hr, dissociated with dissociation buffer, and stained with anti-CD144 antibody. The cells were then fixed, permeabilized, and fixed once more, followed by 1 hr incubation with DNase I (200 U) at 37┌ C. After incubation with FITC-conjugated anti-BrdU antibody for 20 min at RT, the cells were stained with 7-AAD. The cells were analyzed by FACS Aria II and the data were analyzed using FlowJo software.

αMHC GFP+CMs = assay: Sorted αMHC-GFP+ CMs in feeder-free condition; conditions: Y27632 10 μM
Description: Analysis and sorting for CMs were performed at day 10.5. We harvested differentiated Flk1+ MPCs on OP9 cells with 0.25% trypsin-EDTA or dissociation buffer (Invitrogen). Cardiac troponin-T (cTnT)+ and ┌ smooth muscle actin (SMA)+ cells were analyzed after permeabilization using Cytofix/Cytoperm solution (BD Biosciences) for 15 min. After permeabilization, the cells were incubated for 30 min with anti-mouse cTnT (NeoMarkers) monoclonal antibody. After washing in 10% Perm/Wash buffer (BD Biosciences), the cells were incubated for 10 min with Alexa Fluor® 647 anti-mouse IgG (Invitrogen). After washing in 10% Perm/Wash buffer (BD Biosciences), the cells were incubated for 30 min with Cy3-conjugated anti-┌ SMA (clone 1A4, Sigma). We sorted out CMs using ┌ MHC GFP. Sorted Flk1+ MPCs on OP9 cells were harvested with 0.25% trypsin-EDTA or dissociation buffer (Invitrogen) and cells were washed using phosphate buffered saline/10% FBS twice. Dead cells were excluded using 7-aminoactinomycin D (Invitrogen). Then, we sorted out ┌ MHC GFP+CMs and plated on to 0.1% gelatin coated dish in the differentiation medium. The medium was changed every 2 days. Analyses and sorting were performed by FACS Aria II (Beckton Dickinson). Data were analyzed using FlowJo Version 7.5.4 software (TreeStar). […]

## C[C@@H](N)[C@H]1CC[C@H](C(=O)Nc2ccncc2)CC1 [Y27632]
Flk1+ MPCs
  reduction of αSMA+MC population: ~83%
CD144+ ECs
  population of CD144+ ECs expressing pan-endothelial cell surface markers (Flk1, Tie2, endoglin and ICAM2) compared to control: ~2.0 fold
  population of CD144+ ECs that express D114 (arterial): 4.6 fold
  population of CD144+ ECs that express EphB4 (venous): 2.4 fold
  population of CD144+ ECs that express LYVE-1 (lymphatic): 2.1 fold
  population of CD144+ ECs that express Notch1 (arterial): 2.4 fold
  population of CD144+ ECs that express VEGFR3 (lymphatic): 3.8 fold
  populations of cells expressing αSMA and CD140b: markedly reduced
ICAM2+ ECs
  increase of percentage of cells in S phase compared to control: ~1.8 fold
αMHC GFP+CMs; day 12.5
  self-beating CMs compared to control: much more self-beating CMs
αMHC GFP+CMs; day 14.5, confluent state
  area of self-beating CMs compared control: ~2.8 fold
